Measured values taken from US20250326771A1, “PIPERAZINE DERIVATIVES USEFUL IN HIV THERAPY” (VIIV HEALTHCARE COMPANY, priority 2022, published 2025).
Read-outs that look alike come from different tables or passages of the source.

Columns and labels:
[1] = molecular target: XIAP-BIR3 (Homo sapiens (Human), UniProt P98170); test: BIR binding assay (FRET competition), XIAP BIR3; details: for XIAP BIR3 vs BIR2 separation window: fold separation (FS) for XIAP
Summary of the method: (§1)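 His-tagged domains (50 nM cIAP1-BIR3, 325 nM cIAP2-BIR2, 325 nM cIAP1-BIR2, 100 nM XIAP-BIR3) compete with compounds for a 200 nM AlexaFluor647-labelled SMAC/DIABLO peptide in HEPES buffer, pH 7.4, for 60 min. Then 2 nM Eu-W1024 is added for 30 min. The 615/665 nm ratio is fit by four-parameter fit to give IC50.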

[2] = molecular target: XIAP-BIR2 (Homo sapiens (Human), UniProt P98170); test: BIR binding assay (FRET competition), XIAP BIR2
Sequence of XIAP-BIR2 (P98170 124-240): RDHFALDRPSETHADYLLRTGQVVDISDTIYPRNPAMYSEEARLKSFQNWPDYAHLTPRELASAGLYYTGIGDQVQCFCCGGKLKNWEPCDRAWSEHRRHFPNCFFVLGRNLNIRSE
Summary of the method: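 Compounds in a 15-point, 3-fold series competed with an AlexaFluor647 SMAC peptide (AVPIAQKSE, 200 nM) for 200 nM His-tagged XIAP-BIR2 over 60 min in pH 7.4 HEPES/CHAPS/DTT buffer. Eu-W1024 (2 nM) was then added for 30 min. IC50 and pIC50 were derived from the 615 nm/665 nm emission ratio by variable-slope fit.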

[3] = molecular target: cIAP2-BIR3 (Homo sapiens (Human), UniProt Q13489); test: BIR binding assay (FRET competition), cIAP2 BIR3; details: for cIAP2 BIR3 vs BIR2 separation window: fold separation (FS) for cIAP2
Sequence of cIAP2-BIR3 (Q13489 238-349): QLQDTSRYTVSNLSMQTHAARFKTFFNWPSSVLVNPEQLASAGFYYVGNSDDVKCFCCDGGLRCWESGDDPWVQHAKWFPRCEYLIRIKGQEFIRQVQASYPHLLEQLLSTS

[4] = molecular target: cIAP1-BIR2 (Homo sapiens (Human), UniProt Q13490); test: BIR binding assay (FRET competition), cIAP1 BIR2
Sequence of cIAP1-BIR2 (Q13490 173-257): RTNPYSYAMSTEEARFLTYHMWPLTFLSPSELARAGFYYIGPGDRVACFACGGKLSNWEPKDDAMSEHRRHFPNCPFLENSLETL
Summary of the method: as §1

[5] = molecular target: cIAP1-BIR3 (Homo sapiens (Human), UniProt Q13490); test: BIR binding assay (FRET competition), cIAP1 BIR3; details: for cIAP1 BIR3 vs BIR2 separation window: fold separation (FS) for cIAP1
Sequence of cIAP1-BIR3 (Q13490 253-363): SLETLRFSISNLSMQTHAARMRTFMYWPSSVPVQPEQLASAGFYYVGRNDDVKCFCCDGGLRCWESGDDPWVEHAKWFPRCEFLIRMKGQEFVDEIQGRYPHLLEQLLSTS
Summary of the method: as §1

[6] = molecular target: cIAP2-BIR2 (Homo sapiens (Human), UniProt Q13489); test: BIR binding assay (FRET competition), cIAP2 BIR2
Sequence of cIAP2-BIR2 (Q13489 158-242): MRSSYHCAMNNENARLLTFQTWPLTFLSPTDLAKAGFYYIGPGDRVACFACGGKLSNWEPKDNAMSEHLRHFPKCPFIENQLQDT
Summary of the method: as §1

[7] = test system: Jurkat HIV-luciferase clones; test: Jurkat latency reversal assay; format: cell-based; details: Homo sapiens, 48 h; Jurkat latency reversal assay potency; read-out: Jurkat pEC50 (converted)
Summary of the method: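 Luminescence read-out: Steady-Glo after 48 h, 37° C, on mixed Jurkat HIV-luc clones (C16, 115, N6; 5,000 cells/well total). Cpd 14-pt 3-fold dilutions, duplicate, top 10 μM, 0.5% DMSO. EC50 + max % activation vs vehicle via 4-parameter fit.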

[8] = FRET competition binding, read-out: XIAP BIR2 (pIC50) (converted)

Sequence of XIAP-BIR3 (P98170 241-356): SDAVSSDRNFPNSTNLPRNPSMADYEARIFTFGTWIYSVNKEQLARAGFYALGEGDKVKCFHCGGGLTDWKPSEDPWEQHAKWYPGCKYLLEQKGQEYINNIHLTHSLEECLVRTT

SMILES	IC50 [1] [µM]	XIAP BIR3 vs BIR2 separation window [1]	IC50 [2, 8] [µM]	IC50 [3] [µM]	cIAP2 BIR3 vs BIR2 separation window [3]	IC50 [4] [µM]	IC50 [5] [µM]	cIAP1 BIR3 vs BIR2 separation window [5]	IC50 [6] [µM]	EC50 [7] [µM]	XIAP BIR2 (pIC50) ([2]; FRET competition binding)	IC50 [2] [µM]
C[C@@H]1CN(CC(=O)N2CC(C)(C)c3[nH]c(=O)c(Cc4ccc(F)cc4)cc32)[C@@H](CN2CCN(C(=O)CCCCCCCCC(=O)N3CCN(C[C@H]4CN[C@H](C)CN4CC(=O)N4CC(C)(C)c5[nH]c(=O)c(Cc6ccc(F)cc6)cc54)[C@H](C)C3)C[C@H]2C)CN1 [Example 3, 1,10-bis((R)-4-(((2R,5R)-1-(2-(6-(4-fluorobenzyl)-3,3-dimethyl-5-oxo-2,3,4,5-tetrahydro-1H-pyrrolo[3,2-b]pyridin-1-yl)-2-oxoethyl)-5-methylpiperazin-2-yl)methyl)-3-methylpiperazin-1-yl)decane-1,10-dione]	0.0316 to 0.501	+++ (10,000>FS>1,000)	10 to 51.3	0.0158 to 0.0316	++ (1,000>FS>100)	0.0224 to 1	0.00794 to 0.0158	++ (1,000>FS>100)	1 to 3.16	0.0126 to 0.0631		
C[C@@H]1CN(CC(=O)N2CC(C)(C)c3[nH]c(=O)c(Cc4ccc(F)cc4)cc32)[C@@H](CN2CCN(C(=O)c3ccc(C(=O)N4CCN(C[C@H]5CN[C@H](C)CN5CC(=O)N5CC(C)(C)c6[nH]c(=O)c(Cc7ccc(F)cc7)cc65)[C@H](C)C4)cc3)C[C@H]2C)CN1 [Example 19, 1,1′-(2,2′-((3R,3′R,6R,6′R)-(((2R,2′R)-terephthaloylbis(2-methylpiperazine-4,1-diyl))bis(methylene))bis(3-methylpiperazine-6,1-diyl))bis(acetyl))bis(6-(4-fluorobenzyl)-3,3-dimethyl-1,2,3,4-tetrahydro-5H-pyrrolo[3,2-b]pyridin-5-one)]	0.00138 to 0.00794	++++ (FS>10,000)		0.00138 to 0.00794	+++ (10,000>FS>1,000)	0.0224 to 1	0.00138 to 0.00794	+++ (10,000>FS>1,000)	0.0224 to 1	0.0631 to 0.316	+ (4.29<pIC50<=5.00)	
C[C@@H]1CN(CC(=O)N2CC(C)(C)c3[nH]c(=O)c(Cc4ccc(F)cc4)cc32)[C@@H](CN2CCN(Cc3c(F)c(F)c(CN4CCN(C[C@H]5CN[C@H](C)CN5CC(=O)N5CC(C)(C)c6[nH]c(=O)c(Cc7ccc(F)cc7)cc65)[C@H](C)C4)c(F)c3F)C[C@H]2C)CN1 [Example 28, 1,1′-(2,2′-((3R,3′R,6R,6′R)-(((2R,2′R)-((perfluoro-1,4-phenylene)bis(methylene))bis(2-methylpiperazine-4,1-diyl))bis(methylene))bis(3-methylpiperazine-6,1-diyl))bis(acetyl))bis(6-(4-fluorobenzyl)-3,3-dimethyl-1,2,3,4-tetrahydro-5H-pyrrolo [3,2-b]pyridin-5-one)]	0.0316 to 0.501	+++ (10,000>FS>1,000)	10 to 51.3	0.0158 to 0.0316	+++ (10,000>FS>1,000)	1 to 3.16	0.0158 to 0.0316	+++ (10,000>FS>1,000)	3.16 to 10	0.316 to 3.31		
C[C@@H]1CN(CC(=O)N2CC(C)(C)c3[nH]c(=O)c(Cc4ccc(F)cc4)cc32)[C@@H](CN2CCO[C@H](COc3cccc(OC[C@@H]4CN(C[C@H]5CN[C@H](C)CN5CC(=O)N5CC(C)(C)c6[nH]c(=O)c(Cc7ccc(F)cc7)cc65)CCO4)c3)C2)CN1 [Example 69, 1,1′-(2,2′-((3R,3′R,6R,6′R)-(((2S,2'S)-((1,3-phenylenebis(oxy))bis(methylene))bis(morpholine-2,4-diyl))bis(methylene))bis(3-methylpiperazine-6,1-diyl))bis(acetyl))bis(6-(4-fluorobenzyl)-3,3-dimethyl-1,2,3,4-tetrahydro-5H-pyrrolo[3,2-b]pyridin-5-one)]	0.0158 to 0.0316			0.00794 to 0.0158		1 to 3.16	0.00794 to 0.0158		1 to 3.16	0.00049 to 0.0126		10 to 51.3
C[C@@H]1CN(CC(=O)N2CC(C)(C)c3[nH]c(=O)c(Cc4ccc(F)cc4)cc32)[C@@H](CN2CCO[C@H](C(=O)NCCNC(=O)[C@@H]3CN(C[C@H]4CN[C@H](C)CN4CC(=O)N4CC(C)(C)c5[nH]c(=O)c(Cc6ccc(F)cc6)cc54)CCO3)C2)CN1 [Example 128, (2S,2'S)-N,N′-(ethane-1,2-diyl)bis(4-(((2R,5R)-1-(2-(6-(4-fluorobenzyl)-3,3-dimethyl-5-oxo-2,3,4,5-tetrahydro-1H-pyrrolo[3,2-b]pyridin-1-yl)-2-oxoethyl)-5-methylpiperazin-2-yl)methyl)morpholine-2-carboxamide)]	0.0158 to 0.0316	++++ (FS>10,000)	10 to 51.3	0.00794 to 0.0158	+++ (10,000>FS>1,000)	3.16 to 10	0.0158 to 0.0316	+++ (10,000>FS>1,000)	3.16 to 10	0.316 to 3.31		
C[C@@H]1CN(CC(=O)N2CC(C)(C)c3[nH]c(=O)c(Cc4ccc(F)cc4)cc32)[C@@H](CN2CCN(C(=O)c3ccnc(-c4cc(C(=O)N5CCN(C[C@H]6CN[C@H](C)CN6CC(=O)N6CC(C)(C)c7[nH]c(=O)c(Cc8ccc(F)cc8)cc76)[C@H](C)C5)ccn4)c3)C[C@H]2C)CN1 [Example 23, 1,1′-(2,2′-((3R,3′R,6R,6′R)-(((2R,2′R)-([2,2′-bipyridine]-4,4′-dicarbonyl)bis(2-methylpiperazine-4,1-diyl))bis(methylene))bis(3-methylpiperazine-6,1-diyl))bis(acetyl))bis(6-(4-fluorobenzyl)-3,3-dimethyl-1,2,3,4-tetrahydro-5H-pyrrolo[3,2-b]pyridin-5-one)]	0.00138 to 0.00794		10 to 51.3	0.00138 to 0.00794		1 to 3.16	0.00138 to 0.00794		1 to 3.16	0.0631 to 0.316		
C[C@@H]1CN(CC(=O)N2CC(C)(C)c3[nH]c(=O)c(Cc4ccc(F)cc4)cc32)[C@@H](CN2CCO[C@H](COCc3cccc(COC[C@@H]4CN(C[C@H]5CN[C@H](C)CN5CC(=O)N5CC(C)(C)c6[nH]c(=O)c(Cc7ccc(F)cc7)cc65)CCO4)c3)C2)CN1 [Example 80, 1,1′-(2,2′-((3R,3′R,6R,6′R)-(((2S,2'S)-(((1,3-phenylenebis(methylene))bis(oxy))bis(methylene))bis(morpholine-2,4-diyl))bis(methylene))bis(3-methylpiperazine-6,1-diyl))bis(acetyl))bis(6-(4-fluorobenzyl)-3,3-dimethyl-1,2,3,4-tetrahydro-5H-pyrrolo[3,2-b]pyridin-5-one)]	0.00138 to 0.00794	++++ (FS>10,000)	10 to 51.3	0.00138 to 0.00794	+++ (10,000>FS>1,000)	1 to 3.16	0.00138 to 0.00794	+++ (10,000>FS>1,000)	3.16 to 10	0.00049 to 0.0126		
C[C@@H]1CN(CC(=O)N2CC(C)(C)c3[nH]c(=O)c(Cc4ccc(F)cc4)cc32)[C@@H](CN2CCO[C@H](COc3cccc(OC[C@@H]4CN(C[C@H]5CN[C@H](C)CN5CC(=O)N5CC(C)(C)c6[nH]c(=O)c(Cc7ccc(F)cc7)cc65)CCO4)c3Br)C2)CN1 [Example 87, 1,1′-(2,2′-((3R,3′R,6R,6′R)-(((2S,2'S)-(((2-bromo-1,3-phenylene)bis(oxy))bis(methylene))bis(morpholine-2,4-diyl))bis(methylene))bis(3-methylpiperazine-6,1-diyl))bis(acetyl))bis(6-(4-fluorobenzyl)-3,3-dimethyl-1,2,3,4-tetrahydro-5H-pyrrolo[3,2-b]pyridin-5-one)]	0.00794 to 0.0158	++++ (FS>10,000)	10 to 51.3	0.00794 to 0.0158	+++ (10,000>FS>1,000)	1 to 3.16	0.00794 to 0.0158	+++ (10,000>FS>1,000)	3.16 to 10	0.00049 to 0.0126		
Cc1c(OC[C@@H]2CN(C[C@H]3CN[C@H](C)CN3CC(=O)N3CC(C)(C)c4[nH]c(=O)c(Cc5ccc(F)cc5)cc43)CCO2)cccc1OC[C@@H]1CN(C[C@H]2CN[C@H](C)CN2CC(=O)N2CC(C)(C)c3[nH]c(=O)c(Cc4ccc(F)cc4)cc32)CCO1 [Example 79, 1,1′-(2,2′-((3R,3′R,6R,6′R)-(((2S,2'S)-(((2-methyl-1,3-phenylene)bis(oxy))bis(methylene))bis(morpholine-2,4-diyl))bis(methylene))bis(3-methylpiperazine-6,1-diyl))bis(acetyl))bis(6-(4-fluorobenzyl)-3,3-dimethyl-1,2,3,4-tetrahydro-5H-pyrrolo[3,2-b]pyridin-5-one)]	0.00794 to 0.0158	++++ (FS>10,000)	10 to 51.3	0.00138 to 0.00794	+++ (10,000>FS>1,000)	1 to 3.16	0.00138 to 0.00794	+++ (10,000>FS>1,000)	3.16 to 10	0.00049 to 0.0126		
